Reference: patent US9079915B2, “Thienyl- and furanyl-isoquinolinones and methods for using them” (priority 2008, dated 2015)

Experiments:
Format in all cases: in vivo
[1] = test system: Wistar rats, 90 min tMCAO; assay: Transient middle cerebral artery occlusion (tMCAO) model; conditions: tMCAO rat
Procedure: (§1) Adult male Wistar rats (Charles River, Wilmington, Mass.) 290-310 g were used in all studies. Animal procedures were approved by the Institutional Animal Care and Use Committee and conducted in accordance with the guidelines of the National Institutes of Health.
(§2) Rats were anesthetized with 3% isoflurane in a mixture of 70% nitrous oxide and 30% oxygen through a nose cone. Core body temperature was maintained at 37° C. throughout the surgery using a heating lamp. tMCAO was induced for 90 min using the intraluminal suture method (Longa et al., Reversible middle cerebral artery occlusion without craniectomy in rats. Stroke 20:84-91, 1989). Briefly, an 18 mm length of 4-0 monofilament nylon suture coated with poly-L-lysine (Belayev et al., 1996) with a flame-rounded tip was inserted into the external carotid artery and advanced into the internal carotid to occlude the origin of the MCA Ninety minutes later rats were re-anesthetized, the suture withdrawn and the incision closed. Drug (test compound) or vehicle, were administered into the tail vein as a 3 IV bolus doses 3 hours apart in a volume of 2 ml/kg starting at 4 hours post-induction of stroke at various time intervals after the induction of stroke. Animals were tested for motor deficits using a scoring system described by (Bederson et al., 1986). A Bederson score of 5 (maximum) at 90 minutes post-induction of tMCAO was a criterion for inclusion in the trial. Motor deficits and body weight were monitored at 24 and 48 hours post-tMCAO. Neurological deficits were assessed by blinded operators. Rats were sacrificed at 48 hours post-tMCAO. Sham-operated controls were subjected to identical surgical procedures but without advancement of the monofilament into the MCA branching point. The same model was also used, but in addition to occlusion of middle cerebral arteries, both carotid arteries were occluded (CCAO) for the same time 90 minutes. This was Severe Transient MCAO.
After sacrifice, brains were extracted and 2 mm coronal sections were cut starting at 4 mm from the frontal pole using a rat brain matrix (Stoeling, Wood Dale, Ill.). Sections were stained by immersion in a 2% solution of 2,3,5-triphenyl tetrazolium chloride at 37° C. for 10 minutes and then in 10% neutral formalin for preservation. Digitized images of sections were collected using the MCID image analysis system (Imaging Research, Inc. Ontario, Canada), and the area of infarct determined for each slice. Total infarct volume was calculated by multiplying a sum of areas by the distance between them in mm.
Values are expressed as means±SEM for the indicated number of animals or number of in vitro experiments. The statistical significance of differences between means was calculated by one-way ANOVA with post-hoc Fisher test or Dunnett's comparison to control or with Student's t-test analysis, as appropriate. Linear mix model was used to assess differences between treatment groups during 3-week neurological function recovery testing post-pMCAO. Statistical significance was assumed at p<0.05.
The first study was conducted using a transient middle cerebral artery occlusion (tMCAO) model. Rats were subjected to 90 minutes tMCAO and compound (2-dimethylaminomethyl-9-hydroxythieno[2,3-c]isoquinolin-5(4H)-one) was administered using 3 bolus injections at 4, 7 and 10 hours post-ischemia and an intraperitoneal (IP) route of administration. The three doses evaluated were 0.1, 1 and 10 mg/kg. Dosing was initiated at 4 hours post-MCAO because it is a clinically relevant therapeutic time window to treatment. Infarct volumes and neurological testing were carried out at 48 hours post-ischemia. This model produces an extensive unilateral lesion that involves the motor cortex and striatum. It is used to assess acute neuroprotection and neurological function in a reperfusion model of stroke. […]

[2] = test system: Wistar rats, severe permanent MCAO; assay: Severe permanent MCAO model (intraluminal suture not removed); conditions: severe permanent MCAO rat, 3×1 mg/kg IP from 30 minutes post-ischemia, 24 hours
[3] = test system: Wistar rats, severe tMCAO; assay: Severe tMCAO model (MCA and both carotid arteries temporarily occluded); conditions: severe tMCAO rat, 48 hours
Procedure: as §1
as §2, with “Sham-operated controls were subjected to identical surgical procedures but without advancement of the monofilament into the MCA branching point. The same model was also used, but in addition to occlusion of middle cerebral arteries, both carotid arteries were occluded (CCAO) for the same time 90 minutes. This was Severe Transient MCAO.” left out
After sacrifice, brains were extracted and 2 mm coronal sections were cut starting at 4 mm from the frontal pole using a rat brain matrix (Stoeling, Wood Dale, Ill.). […] Digitized images of sections were collected using the MCID image analysis system (Imaging Research, Inc. Ontario, Canada), and the area of infarct determined for each slice. Total infarct volume was calculated by multiplying a sum of areas by the distance between them in mm.
Values are expressed as means±SEM for the indicated number of animals or number of in vitro experiments. The statistical significance of differences between means was calculated by one-way ANOVA with post-hoc Fisher test or Dunnett's comparison to control or with Student's t-test analysis, as appropriate. […]
In a third assay, a severe tMCAO model was used (where both MCAO and carotid arteries were temporarily occluded) to obtain an injury. […] Doses of 1 or 10 mg/kg of 2-dimethylaminomethyl-9-hydroxythieno[2,3-c]isoquinolin-5(4H)-one were given at 4, 7 and 10 hours and animals were evaluated for infarct size, weight loss and neurological score at 48 hours post-MCAO.

[4] = test system: Wistar rats, pMCAO; assay: Less severe permanent MCAO (pMCAO, distal MCA occlusion) model; conditions: pMCAO rat
Procedure: Adult male Wistar rats (Charles River, Wilmington, Mass.) 290-310 g were used in all studies. Animal procedures were approved by the Institutional Animal Care and Use Committee and conducted in accordance with the guidelines of the National Institutes of Health. Craniotomy was performed under isoflurane anesthesia. This was followed by electrocauterization of the distal portion of the MCA and a 90 minute ligation of both carotid arteries to limit collateral circulation during the initial stage of stroke, as described by Chen, et al. (Chen et al., 1986). Compound or vehicle, were administered as infusion starting at 4 hours post-induction of stroke and lasting 24 hours. Animals were maintained for long-term functional recovery assessment. Sensorimotor and reflex deficits were evaluated at 3-day intervals for 90 days according to (Bederson et al., 1986; De Ryck et al., 1989). Each trial included: postural test, two visual and two tactile forelimb placement tests and a hind limb placement test. Performance at each test was scored from 0 (no deficit) to 2 (severe deficit) for a maximum combined score of 12. Neurological scoring was performed in a blinded fashion. Values are expressed as means±SEM for the indicated number of animals or number of in vitro experiments. The statistical significance of differences between means was calculated by one-way ANOVA with post-hoc Fisher test or Dunnett's comparison to control or with Student's t-test analysis, as appropriate. Linear mix model was used to assess differences between treatment groups during 3-week neurological function recovery testing post-pMCAO. Statistical significance was assumed at p<0.05. A further efficacy study was conducted and employed a less severe permanent MCAO (pMCAO) model. This model, which utilized an occlusion of the distal portion of the middle cerebral artery, produced a much smaller injury contained within the sensorimotor cortex of the animal. The injury sustained in this model was less extensive but still involves the motor cortex and the rats can be assessed over the long-term (3 weeks to 3 months post-ischemia) for neurological function. In a first study with this model, rats were administered an IV bolus dose of 1, 3 or 10 mg/kg initiated at 4 hours post-ischemia and followed by 2 subsequent and equivalent doses at 7 and 10 hours. In a second study, rats were given a single IV bolus followed by a 24 hr IV infusion. Neurological function was tested every 2-3 days for 3 weeks post-MCAO.

[5] = 11.7 mg/kg IV bolus then 0.9 mg/hr infusion for 24 hours

In the case of `CN(C)Cc1cc2c([nH]c(=O)c3cccc(O)c32)s1` [2-dimethylaminomethyl-9-hydroxythieno[2,3-c]isoquinolin-5(4H)-one], the neurological deficits ([1]; 1 mg/kg IP ×3, 48 hr post-MCAO) is reported as “significantly reduced neurological deficits”, the “effect on neurological deficits, weight loss and infarct volume” value ([1]; 3.9 mg/kg IV bolus then 0.3 mg/hr infusion for 24 hours (lower dose)) is reported as “No effect was seen” and the ischemic-induced weight loss [1, 5] is reported as “significant reduction in ischemic-induced weight loss”. For the same molecule, the “reduction in infarct volume (small but insignificant)” value [1, 5] was 10%, the neurological deficits ([1]; 11.7 mg/kg IV bolus then 0.9 mg/hr infusion for 24 hours from 4 hours post-tMCAO, 48 hours) was “significant reduction in neurological deficits” and the “reduction of infarct volume vs vehicle” value ([1]; 3×0.1 mg/kg IP at 4, 7 and 10 hours post-ischemia, 48 hours) was 20%. The “reduction of infarct volume vs vehicle” value ([1]; 3×1 mg/kg IP at 4, 7 and 10 hours post-ischemia, 48 hours) was 55%, the “reduction of infarct volume vs vehicle” value ([1]; 3×10 mg/kg IP at 4, 7 and 10 hours post-ischemia, 48 hours) was 66% and the “infarct volume smaller than vehicle” value [2] was 42%. For the same molecule, the “infarct volume smaller than vehicle” value ([3]; 3 times 1 mg/kg IV bolus at 4, 7 and 10 hours) was 22%, the “infarct volume smaller than vehicle” value ([3]; 3 times 10 mg/kg IV bolus at 4, 7 and 10 hours) was 19% and the ischemia-induced weight loss ([3]; 3 times 1 or 10 mg/kg IV bolus) was “reduction of ischemia-induced weight loss”. For the same molecule, the neurological deficits ([3]; 3 times 1 or 10 mg/kg IV bolus) was “reduction of neurological deficits”, the “time for which neurological recovery was maintained following ischemia” value ([4]; 3.5 mg/kg IV bolus plus 2.5 mg/hr IV infusion for 24 hours) was “at least 3 months” and the neurological deficits ([4]; 3.5 mg/kg IV bolus plus 2.5 mg/hr IV infusion for 24 hours, 39 days post-ischemia) was “significantly reduced neurological deficits”. The “neurological function, 10 mg/kg dose” value ([4]; multiple IV bolus 10 mg/kg, 21 days post-ischemia) was “approached efficacy” and the neurological function ([4]; multiple IV bolus 1, 3 or 10 mg/kg at 4, 7 and 10 hours, 21 days post-ischemia) was “no significant improvement in neurological function”.
